The source of these data is patent US20240391881A1, “PHARMACEUTICAL USE AND PREPARATION METHOD FOR SUBSTITUTED HETEROARYL PHTHALAZINE DERIVATIVE” (ORIGIANT PHARMACEUTICAL CO., LTD., priority 2021, published 2024).

Some results are limits rather than exact numbers.

In this experiment the target is T1, NLRP3 inflammasomes (Homo sapiens, UniProt Q96P20).
T1 construct: endogenous in cells; host or cells: THP-1 human monocytic cells, PMA-differentiated, LPS-primed, nigericin-stimulated
T1 sequence (Q96P20 whole entry): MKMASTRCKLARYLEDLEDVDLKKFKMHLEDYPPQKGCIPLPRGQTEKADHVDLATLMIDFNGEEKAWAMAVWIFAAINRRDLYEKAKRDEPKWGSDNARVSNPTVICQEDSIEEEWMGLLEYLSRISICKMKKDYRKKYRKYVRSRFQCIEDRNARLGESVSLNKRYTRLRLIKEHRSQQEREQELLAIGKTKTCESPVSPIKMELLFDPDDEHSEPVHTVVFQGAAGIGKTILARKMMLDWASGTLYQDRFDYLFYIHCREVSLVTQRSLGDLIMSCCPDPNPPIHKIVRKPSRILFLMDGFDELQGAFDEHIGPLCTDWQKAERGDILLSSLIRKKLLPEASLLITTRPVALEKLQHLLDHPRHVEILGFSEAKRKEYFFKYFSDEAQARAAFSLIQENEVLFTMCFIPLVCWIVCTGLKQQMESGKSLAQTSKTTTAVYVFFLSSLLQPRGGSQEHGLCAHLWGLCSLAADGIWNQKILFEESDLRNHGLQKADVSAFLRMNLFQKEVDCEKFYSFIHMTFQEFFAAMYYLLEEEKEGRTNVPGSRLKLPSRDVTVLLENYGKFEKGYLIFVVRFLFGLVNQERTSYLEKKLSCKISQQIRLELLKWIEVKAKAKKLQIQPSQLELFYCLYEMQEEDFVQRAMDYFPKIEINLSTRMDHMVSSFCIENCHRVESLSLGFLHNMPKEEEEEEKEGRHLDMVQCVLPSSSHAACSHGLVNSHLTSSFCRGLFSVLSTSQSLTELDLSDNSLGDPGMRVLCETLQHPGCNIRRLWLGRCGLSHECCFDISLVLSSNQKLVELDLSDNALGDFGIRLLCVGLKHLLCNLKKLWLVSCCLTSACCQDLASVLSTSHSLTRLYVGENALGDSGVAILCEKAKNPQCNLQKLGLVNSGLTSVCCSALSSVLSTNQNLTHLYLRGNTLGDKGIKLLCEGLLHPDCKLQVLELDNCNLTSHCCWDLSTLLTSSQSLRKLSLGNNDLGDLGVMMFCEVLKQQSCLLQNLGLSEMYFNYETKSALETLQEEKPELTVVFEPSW
Briefly: THP-1 pyroptosis test (cell pyroptosis test). The class given is cell-based. To be noted: THP-1 cells differentiated with PMA, LPS stimulation, 10 μM nigericin, drug 0.001-10 μM, MTT absorbance 562 nm. The procedure:
In vitro activity screening was performed on small molecule compounds targeting inhibition on NLRP3 inflammasomes using THP-1 human monocytic cells (THP-1). THP-1 can be induced to differentiate into macrophages by phorbol ester (PMA), and the macrophages M1 can be induced to polarize by lipopolysaccharide (LPS) to release cytokines such as TNF-α, and IL-6, so as to establish a typical inflammatory model.
THP-1 cells in a logarithmic growth phase were collected to prepare a 1×10^6 cells/mL cell suspension, PMA was added to achieve a final concentration of 300 ng/mL in the cell suspension, then 1×10^5 cells were inoculated to each well of a 96-well plate, and the cells were cultured in a 37° C., 5% CO2 cell incubator for 24 hours and induced to differentiate into macrophages.
The next day, LPS was added to stimulate and induce the cells to produce an inflammatory model. […] In the 200 μL system of the 96-well plate, the final concentration of each drug was 0.001-10 μM, and the final concentration of the nigericin was 10 μM.
Cell apoptosis protection rate=[(X−C0)/(C−C0)]×100%
wherein, C, C0 and X represent average absorbance values of the normal cell group, the blank control group, and the drug treatment group, respectively. Finally, cell survival curves were fitted by Graphpad Prism 5.0 software and EC50 values of the compounds to be tested in inhibiting pyroptosis caused by NLRP3 inflammasomes were calculated.
What is called EC50 is the concentration giving half of the maximal effect. A lower EC50 goes with higher potency in that assay. The molecule `Cc1ccc2c(N[C@@H]3CCCN(C)C3)nnc(-c3ccc(C(F)(F)F)cc3O)c2c1` [Compound 3, (R)-2-(7-methyl-4-((1-methylpiperidin-3-yl)amino)phthalazin-1-yl)-5-(trifluoromethyl)phenol] yielded a concentration giving a half-maximal response (EC50) below 20 nM.
As for `Cc1ccc2c(-c3ccc(C(F)(F)F)cc3O)nnc(N[C@@H]3CCCN(C)C3)c2c1` [Compound 4, (R)-2-(6-methyl-4-((1-methylpiperidin-3-yl)amino)phthalazin-1-yl)-5-(trifluoromethyl)phenol], the figure is below 20 nM; as for `COc1ccc2c(N[C@@H]3CCCN(C)C3)nnc(-c3ccc(C(F)(F)F)cc3O)c2c1` [Compound 5, (R)-2-(7-methoxy-4-((1-methylpiperidin-3-yl)amino)phthalazin-1-yl)-5-(trifluoromethyl)phenol], below 20 nM.
Regarding `COc1ccc2c(-c3ccc(C(F)(F)F)cc3O)nnc(N[C@@H]3CCCN(C)C3)c2c1` [Compound 6, (R)-2-(6-methoxy-4-((1-methylpiperidin-3-yl)amino)phthalazin-1-yl)-5-(trifluoromethyl)phenol], the EC50 is below 20 nM.
With `C[C@@H](Nc1nnc(-c2ccc(C(F)(F)F)cc2O)c2ccccc12)c1ccccc1` [Compound 7, (R)-2-(4-((1-phenylethyl)amino)phthalazin-1-yl)-5-(trifluoromethyl)phenol], the EC50 was above 1000 nM.
As for `C[C@H](Nc1nnc(-c2ccc(C(F)(F)F)cc2O)c2ccccc12)c1ccccc1` [Compound 8, (S)-2-(4-((1-phenylethyl)amino)phthalazin-1-yl)-5-(trifluoromethyl)phenol], the figure is above 1000 nM; as for `C[C@@H](Nc1nnc(-c2ccc(C(F)(F)F)cc2O)c2ccccc12)c1ccc(F)cc1` [Compound 9, (R)-2-(4-((1-(4-fluorophenyl)ethyl)amino)phthalazin-1-yl)-5-(trifluoromethyl)phenol], above 1000 nM; as for `C[C@H](Nc1nnc(-c2ccc(C(F)(F)F)cc2O)c2ccccc12)c1ccc(F)cc1` [Compound 10, (S)-2-(4-((1-(4-fluorophenyl)ethyl)amino)phthalazin-1-yl)-5-(trifluoromethyl)phenol], above 1000 nM.
`CCCCNc1nnc(-c2ccc(C(F)(F)F)cc2O)c2ccccc12` [Compound 11, 2-(4-(butylamino)phthalazin-1-yl)-5-(trifluoromethyl)phenol]: the EC50 is above 1000 nM.
As for `C[C@@H](Nc1nnc(-c2ccc(C(F)(F)F)cc2O)c2ccccc12)c1ccccn1` [Compound 12, (R)-2-(4-((1-(pyridin-2-yl)ethyl)amino)phthalazin-1-yl)-5-(trifluoromethyl)phenol], the figure is above 1000 nM; as for `C[C@H](Nc1nnc(-c2ccc(C(F)(F)F)cc2O)c2ccccc12)c1ccccn1` [Compound 13, (S)-2-(4-((1-(pyridin-2-yl)ethyl)amino)phthalazin-1-yl)-5-(trifluoromethyl)phenol], above 1000 nM; as for `CN1CCC[C@@H](Nc2nnc(-c3ccc(C(F)(F)F)cc3O)c3cc(F)ccc23)C1` [Compound 16, 2-(7-fluoro-4-{[(3R)-1-methylpiperidin-3-yl]amino}phthalazin-1-yl)-5-(trifluoromethyl)phenol], below 20 nM.
To `CN1CCC[C@@H](Nc2nnc(-c3ccc(C(F)(F)F)cc3O)c3ccncc23)C1` [Compound 17] belongs below 20 nM.
Take `CN(C)[C@H]1CC[C@H](Nc2nnc(-c3ccc(C(F)(F)F)cc3O)c3ccccc23)CC1` [Compound 18]: the EC50 lay within 500 to 1000 nM.
In turn, `CN(C)[C@H]1CC[C@@H](Nc2nnc(-c3ccc(C(F)(F)F)cc3O)c3ccccc23)CC1` [Compound 19] registered a 50% effective concentration (EC50) of 500 to 1000 nM.
Take `CC(C)(O)CNc1nnc(-c2ccc(C(F)(F)F)cc2O)c2ccccc12` [Compound 20, 2-(4-((2-hydroxy-2-methylpropyl)amino)phthalazin-1-yl)-5-(trifluoromethyl)phenol]: the EC50 is above 1000 nM.
The molecule `Oc1cc(C(F)(F)F)ccc1-c1nnc(NCCN2CCOCC2)c2ccccc12` [Compound 21, 2-(4-((2-morpholinylethyl)amino)phthalazin-1-yl)-5-(trifluoromethyl)phenol] displayed an EC50 above 1000 nM.
`Oc1cc(C(F)(F)F)ccc1-c1nnc(N[C@@H]2CCCNC2)c2ccccc12` [Compound 22, (R)-2-(4-(piperidin-3-ylamino)phthalazin-1-yl)-5-(trifluoromethyl)phenol] displayed an EC50 below 20 nM.
Consider `CCN1CCC[C@@H](Nc2nnc(-c3ccc(C(F)(F)F)cc3O)c3ccccc23)C1` [Compound 23, (R)-2-(4-((1-ethylpiperidin-3-yl)amino)phthalazin-1-yl)-5-(trifluoromethyl)phenol], for which the EC50 was below 20 nM.
As for `CN1CC[C@@H](Nc2nnc(-c3ccc(C(F)(F)F)cc3O)c3ccccc23)C1` [Compound 24, (R)-2-(4-((1-methylpyrrolidin-3-yl)amino)phthalazin-1-yl)-5-(trifluoromethyl)phenol], the figure is below 20 nM; as for `CCN1CC[C@@H](Nc2nnc(-c3ccc(C(F)(F)F)cc3O)c3ccccc23)C1` [Compound 25, (R)-2-(4-((1-ethylpyrrolidin-3-yl)amino)phthalazin-1-yl)-5-(trifluoromethyl)phenol], below 20 nM.
To `CN1CCC[C@@H]1CNc1nnc(-c2ccc(C(F)(F)F)cc2O)c2ccccc12` [Compound 26] belongs 500 to 1000 nM; to `CCN1CCC[C@@H]1CNc1nnc(-c2ccc(C(F)(F)F)cc2O)c2ccccc12` [Compound 27, (R)-2-(4-(((1-ethylpyrrolidin-2-yl)methyl)amino)phthalazin-1-yl)-5-(trifluoromethyl)phenol], 500 to 1000 nM; to `CCN1CCC[C@H]1CNc1nnc(-c2ccc(C(F)(F)F)cc2O)c2ccccc12` [Compound 28], 100 to 500 nM.
As for `Oc1cc(C(F)(F)F)ccc1-c1nnc(N[C@@H]2CCc3ncccc32)c2ccccc12` [Compound 29, (R)-2-(4-((6,7-dihydro-5H-cyclopenta[b]pyridin-5-yl)amino)phthalazin-1-yl)-5-(trifluoromethyl)phenol], the figure is 20 to 100 nM; as for `Oc1cc(C(F)(F)F)ccc1-c1nnc(N[C@H]2CCc3ncccc32)c2ccccc12` [Compound 30, (S)-2-(4-((6,7-dihydro-5H-cyclopenta[b]pyridin-5-yl)amino)phthalazin-1-yl)-5-(trifluoromethyl)phenol], 20 to 100 nM; as for `CN1CCC[C@@H](Nc2nnc(-c3ccccc3O)c3ccccc23)C1` [Compound 31, (R)-2-(4-((1-methylpiperidin-3-yl)amino)phthalazin-1-yl)phenol], 500 to 1000 nM.
Take `CC(=O)N1CCC[C@@H](Nc2nnc(-c3ccc(C(F)(F)F)cc3O)c3ccccc23)C1` [Compound 32, (R)-1-(3-((4-(2-hydroxy-4-(trifluoromethyl)phenyl)phthalazin-1-yl)amino)piperidin-1-yl)ethane-1-one]: the 50% effective concentration (EC50) lay within 20 to 100 nM.
As for `CN1CCC(Nc2nnc(-c3ccc(C(F)(F)F)cc3O)c3ccccc23)CC1` [Compound 35, 2-(4-((1-methylpiperidin-4-yl)amino)phthalazin-1-yl)-5-(trifluoromethyl)phenol], the figure is 500 to 1000 nM; as for `CN1CCC[C@@H](Nc2nnc(-c3ccc(C(F)(F)F)cc3O)c3ncn(C)c23)C1` [Compound 36, (R)-2-(1-methyl-7-((1-methylpiperidin-3-yl)amino)-1H-imidazo[4,5-d]pyridazin-4-yl)-5-(trifluoromethyl)phenol], 500 to 1000 nM.
Molecule `CN1CCC[C@@H](Nc2nnc(-c3ccc(C(F)(F)F)cc3O)c3c2ncn3C)C1` [Compound 37, (R)-2-(1-methyl-4-((1-methylpiperidin-3-yl)amino)-1H-imidazo[4,5-d]pyridazin-7-yl)-5-(trifluoromethyl)phenol] returned an EC50 below 20 nM.
With `Cc1ccc(-c2nnc(N[C@@H]3CCCN(C)C3)c3ccccc23)c(O)c1` [Compound 40, (R)-5-methyl-2-(4-((1-methylpiperidin-3-yl)amino)phthalazin-1-yl)phenol], the half-maximal effective concentration (EC50) is below 20 nM.
`CN1CCC[C@@H](Nc2nnc(-c3ccc(OC(F)(F)F)cc3O)c3ccccc23)C1` [Compound 41, (R)-2-(4-((1-methylpiperidin-3-yl)amino)phthalazin-1-yl)-5-(trifluoromethoxy)phenol] came in with an EC50 below 20 nM.
Consider `CN1CCC[C@@H](Nc2nnc(-c3ccc(C(F)(F)F)cc3O)c3ccc(P(C)(C)=O)cc23)C1` [Compound 43, (R)-(1-(2-hydroxy-4-(trifluoromethyl)phenyl)-4-((1-methylpiperidin-3-yl)amino)phthalazin-6-yl)dimethylphosphine oxide], for which the EC50 lay within 500 to 1000 nM.
Regarding `CN1CCC[C@@H](Nc2nnc(-c3ccc(F)cc3O)c3ccccc23)C1` [Compound 44, (R)-5-fluoro-2-(4-((1-methylpiperidin-3-yl)amino)phthalazin-1-yl)phenol], the EC50 was in the range of 20 to 100 nM.
Molecule `CN1CCC[C@@H](Nc2nnc(-c3ccc(C(F)(F)F)cc3O)c3cc(P(C)(C)=O)ccc23)C1` [Compound 45, (R)-(4-(2-hydroxy-4-(trifluoromethyl)phenyl)-1-((1-methylpiperidin-3-yl)amino)phthalazin-6-yl)dimethylphosphine oxide] gave an EC50 of 500 to 1000 nM.
